Values quoted from earlier work as cited in publication PMC10572662 (International Journal of Molecular Sciences, 2023).

Design: method as in PMID 17601630
Conditions: native βCD and commercial βCD derivatives

| water solubility | Substance |
| --- | --- |
| 600 mg/mL | 2-hydroxypropyl-βCD |
| > 500 mg/mL | O-methyl-βCD |
| > 500 mg/mL | sulfobutylether-βCD |
